Key:
[1] = test system: KE37-1 (uninfected) cells; experiment: MTT test, growth of non-infected cells; format: cell-based; conditions: KE37-1, seven days incubation; 10080 min
Procedure: The KE37-1 (uninfected) and KE37-1/111β (infected) cell lines discussed below are commercially available from the Dr. Robert Gallows Laboratory of the NIH in the United States of America and grown in a medium of RPMI 1640 (GIBCO) and further supplemented with 10% fetal calf serum which contained approximately 100 units of penicillin, 100 μg streptomycin, and approximately 0.25 μg fungizone (Amphotericin B) per milliliter. The human mesenchymal cell lines LC5 and LC5-HIV, discussed below, are deposited with the Collection De L'Institut Pasteur of Paris, France on Mar. 9, 1989 and given the accession numbers I-842 and I-843, respectively. The LC5 and LC5-HIV cell lines were grown in a medium of RPMI 1640 and supplemented with 10% fetal calf serum.
Referring more particularly to FIGS. 1-4, melittin (Seq. ID NO:1) and its specified analogues were tested for their effect on HIV-infected T-lymphoma cells. In this regard the following cell lines were employed in the testing: KE37-1 (uninfected) and KE37-1/111S (infected with HTLV-111β). These infected cells were incubated for a period of seven days under test conditions at a temperature of 37° C. and in the presence of 5% CO2. […] The optical density (OD) of the solution was determined at=600 nm. […]

[2] = test system: feline immunodeficiency virus (FIV); experiment: Example 3: FIV replication in naturally infected cats, quantitative FIV-PCR; format: in vivo
Procedure: To further investigate the effects of melittin (Seq. ID NO:1) on virus replication in retroviral infected cells or the inhibition of retroviral infected cell growth, a series of experiments were conducted utilizing cats which were naturally infected with the feline immunodeficiency virus (FIV). FIV is in its genomic and viral structure, in many respects, very similar to the human immunodeficiency virus (HIV). Therefore, it is widely regarded as similar to HIV, that is, it is a member of the Lentivirus subfamily, of the retrovirus family. Further, it has been determined that experimentally and naturally infected cats having FIV, display very similar disease characteristics such as immunedysfunction or other neurological disorders which can be taken as a relevant model for HIV infection in humans. This is discussed in greater detail in the article authored by Egberink et. al. "Suppression of feline immuno-deficiency virus infection in vivo by 9-(2-phosphonomethoxyethyl)adenine," Proc. Natl. Acad. Sci. 87, 3087-3091 (1990).
In the following series of experiments, two naturally FIV infected cats (M and G) were used. These particular cats were kept for more than one year under constant observation in the Clinic for Internal Medicine at the Veterinary School in Munich, Germany before the onset of melittin (Seq. ID NO:1) treatment. In each cat, FIV infection had been confirmed by detecting an antibody ELISA. In this regard, a test marketed under the tradename PetChek® and which is available from the same company in Portland, Maine was employed. As best seen in FIG. 53. The antibody titer against FIV in both cats was approximately 1:50. As a general matter, the overall physical condition of both cats was good during the observation period. Further and during the experiment, cat M developed shortly before melittin treatment a pneumonitis which was not treated in a conventional fashion. The individual body weights of each cat at the beginning of melittin treatment was 4 kilograms and 2.2 kilograms for cats M and G, respectively.
During the experiment it was determined that detectable blood serum levels of melittin (Seq. ID NO:1) of about 5 ng/ml could be detected following an injection of melittin equal to […] a few minutes after injection. […] In vitro data has shown that melittin, after this time interval, is found within the cells where it can be detected in tact for more than 48 hours. The LD50 (lethal dose where 50% of the animals perish) for melittin is not known for cats. […] The quantitative effect of melittin on FIV replication was determined quantitatively by utilizing FIV-PCR employing nested primers from the gag region. Quantification was based upon the determination of amplified product in identical samples which have been amplified after different cycle times. […]

Substance: Gly-Ile-Gly-Ala-Val-Leu-Lys-Val-Leu-Thr-Thr-Gly-Leu-Pro-Ala-Leu-Ile-Ser-Trp-Ile-Lys-Arg-Lys-Arg-Gln-Gln-Amide [melittin]
- concentration toxic to non-infected cells [1]: above 5 μg per ml
- reduction in virus load ([2]; FIV model, summary): 50%
- amplification of FIV specific sequences, in words ([2]; cat G, day 42 and following days): a reduced amplification could already be seen in the sample from day 42 and the following days
- amplification of FIV specific sequences, late samples, in words ([2]; cat M, days 56 and 116): reduced amplification
- reduction of the virus load ([2]; cat M, days 56 and 116): ≥ 50%
